From ChEMBL document CHEMBL2169878 (J Med Chem, 2012)
Calls of active or inactive are those of the source. The rule behind the calls is not given here.

Columns and labels:
[1] = test system: Salmonella typhimurium; experiment: Mutagenicity against Salmonella typhimurium TA98 assessed as revertants at 6 uM incubated for 90 mins followed by drug washout measured after 2 days relative to positive control; type: toxicity, organism-based; settings: salmonella enterica subsp. enterica serovar typhimurium, 1.5 h
[2] = test system: Heart; experiment: Cardiotoxicity against Sprague-Dawley rat Langendorff perfused heart assessed as intraventricular conduction time at 30 uM by electrophysiological analysis (reference value: 13.92 0.42 ms); type: toxicity, tissue-based
[3] = Apparent volume of distribution in CD1 albino mouse at 50 mg/kg, po; type: ADME, organism-based; design: dose 50 mg/kg, route oral; settings: in vivo, read-out: Vc/F
[4] = test system: Heart; experiment: Cardiotoxicity against Sprague-Dawley rat Langendorff perfused heart assessed as QTc time interval at 0.1 uM by electrophysiological analysis (reference value: 145.78 10.53 ms); type: toxicity, tissue-based
[5] = test system: Salmonella typhimurium; experiment: Mutagenicity against Salmonella typhimurium TA98 assessed as revertants at 12 uM incubated for 90 mins followed by drug washout measured after 2 days relative to positive control; type: toxicity, organism-based; settings: salmonella enterica subsp. enterica serovar typhimurium
[6] = test system: Heart; experiment: Cardiotoxicity against Sprague-Dawley rat Langendorff perfused heart assessed as QT time interval at 10 uM by electrophysiological analysis (reference value: 73.01 4.52 ms); type: toxicity, tissue-based
[7] = Elimination half life in CD1 albino mouse liver at 50 mg/kg, po; type: ADME, organism-based; design: dose 50 mg/kg, route oral; settings: read-out: beta t1/2 (converted)
[8] = test system: Plasmodium falciparum; experiment: Antiplasmodial activity against chloroquine-resistant Plasmodium falciparum W2 infected in human RBC after 72 hrs by parasite lactate dehydrogenase assay; type: functional, organism-based; settings: W2, 72 h
[9] = test system: Plasmodium berghei; experiment: Antimalarial activity against Plasmodium berghei ANKA expressing GFP infected in mouse assessed as mean survival days at 100 mg/kg, po administered 24 hrs post-infection (reference value: 6 to 7 days); type: functional
[10] = test system: Plasmodium berghei; experiment: Antimalarial activity against Plasmodium berghei ANKA expressing GFP infected in mouse assessed as mean survival days at 30 mg/kg, po administered 24 hrs post-infection (reference value: 6 to 7 days); type: functional
[11] = test system: Salmonella typhimurium; experiment: Mutagenicity against Salmonella typhimurium TA100 assessed as revertants at 24 uM incubated for 90 mins followed by drug washout measured after 2 days relative to positive control; type: toxicity, organism-based; settings: salmonella enterica subsp. enterica serovar typhimurium
[12] = test system: Liver; experiment: Drug uptake in CD1 albino mouse liver at 50 mg/kg, po at 6 to 48 hrs; type: ADME, organism-based; design: dose 50 mg/kg, route oral; settings: in vivo
[13] = test system: Plasmodium berghei; experiment: Antimalarial activity against Plasmodium berghei ANKA expressing GFP infected in mouse assessed as mean survival days at 30 mg/kg, po administered QD for 3 days (reference value: 6 to 7 days); type: functional
[14] = Clearance in CD1 albino mouse at 50 mg/kg, po; type: ADME, organism-based; design: dose 50 mg/kg, route oral; settings: in vivo
[15] = test system: Heart; experiment: Cardiotoxicity against Sprague-Dawley rat Langendorff perfused heart assessed as intraventricular conduction time at 1 uM by electrophysiological analysis (reference value: 13.92 0.42 ms); type: toxicity, tissue-based
[16] = test system: Heart; experiment: Cardiotoxicity against Sprague-Dawley rat Langendorff perfused heart assessed as QTc time interval at 10 uM by electrophysiological analysis (reference value: 145.78 10.53 ms); type: toxicity, tissue-based
[17] = test system: Heart; experiment: Cardiotoxicity against Sprague-Dawley rat Langendorff perfused heart assessed as QTc time interval at 1 uM by electrophysiological analysis (reference value: 145.78 10.53 ms); type: toxicity, tissue-based
[18] = test system: Heart; experiment: Cardiotoxicity against Sprague-Dawley rat Langendorff perfused heart assessed as cycle length time at 10 uM by electrophysiological analysis (reference value: 258.62 8.87 ms); type: toxicity, tissue-based
[19] = biological target: T1, Chloroquine resistance transporter (Plasmodium falciparum) (UniProt Q9N623); experiment: Inhibition of chloroquine-resistant Plasmodium falciparum Dd2 CRT expressed in Xenopus laevis oocyte assessed as inhibition of [3H]chloroquine uptake at 100 uM measured from 1 to 2 hrs
T1 sequence (whole entry): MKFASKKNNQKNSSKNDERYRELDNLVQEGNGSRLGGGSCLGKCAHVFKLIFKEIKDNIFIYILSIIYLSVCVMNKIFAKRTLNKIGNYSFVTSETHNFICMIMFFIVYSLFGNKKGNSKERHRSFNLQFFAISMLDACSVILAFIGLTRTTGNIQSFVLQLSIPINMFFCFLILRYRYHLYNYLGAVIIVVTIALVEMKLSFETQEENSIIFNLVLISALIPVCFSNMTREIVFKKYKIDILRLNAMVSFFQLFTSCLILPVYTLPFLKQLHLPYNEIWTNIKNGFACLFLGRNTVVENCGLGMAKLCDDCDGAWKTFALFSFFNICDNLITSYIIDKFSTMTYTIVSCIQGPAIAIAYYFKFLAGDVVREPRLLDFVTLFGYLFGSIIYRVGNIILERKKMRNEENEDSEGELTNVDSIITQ

[20] = test system: Plasmodium falciparum; experiment: Antiplasmodial activity against chloroquine-sensitive Plasmodium falciparum D10 infected in human RBC after 72 hrs by parasite lactate dehydrogenase assay; type: functional, organism-based; settings: D10, 72 h
[21] = Ratio of drug uptake in blood to plasma in CD1 albino mouse; type: ADME; settings: whole blood and plasma
[22] = test system: Plasmodium berghei; experiment: Antimalarial activity against Plasmodium berghei ANKA expressing GFP infected in mouse assessed as reduction in parasitemia at 100 mg/kg, po administered 24 hrs post-infection measured 48 hrs post-dosing by flow cytometric analysis; type: functional; design: scale not given: the % may be the effect or the level left
[23] = test system: Heart; experiment: Cardiotoxicity against Sprague-Dawley rat Langendorff perfused heart assessed as QTc time interval at 30 uM by electrophysiological analysis (reference value: 145.78 10.53 ms); type: toxicity, tissue-based
[24] = test system: Salmonella typhimurium; experiment: Mutagenicity against Salmonella typhimurium TA100 assessed as revertants at 1.5 uM incubated for 90 mins followed by drug washout measured after 2 days relative to positive control; type: toxicity, organism-based; settings: salmonella enterica subsp. enterica serovar typhimurium, 1.5 h
[25] = test system: Heart; experiment: Cardiotoxicity against Sprague-Dawley rat Langendorff perfused heart assessed as QT time interval at 1 uM by electrophysiological analysis (reference value: 73.01 4.52 ms); type: toxicity, tissue-based
[26] = biological target: Chloroquine resistance transporter (Plasmodium falciparum, UniProt Q9N623); experiment: Inhibition of chloroquine-resistant Plasmodium falciparum Dd2 CRT expressed in Xenopus laevis oocyte assessed as inhibition of [3H]chloroquine uptake measured from 1 to 2 hrs
[27] = test system: Plasmodium falciparum; experiment: Antiplasmodial activity against chloroquine-sensitive Plasmodium falciparum NF54 infected in human erythrocytes assessed as inhibition of [3H]hypoxanthine incorporation incubated for 48 hrs prior to [3H]hypoxanthine addition measured after 48 hrs by liquid scintillation counting; type: functional, organism-based
[28] = test system: Salmonella typhimurium; experiment: Mutagenicity against Salmonella typhimurium TA98 assessed as revertants at 24 uM incubated for 90 mins followed by drug washout measured after 2 days relative to positive control; type: toxicity, organism-based; settings: salmonella enterica subsp. enterica serovar typhimurium, 1.5 h
[29] = test system: Plasmodium berghei; experiment: Antimalarial activity against Plasmodium berghei ANKA expressing GFP infected in mouse assessed as mean survival days at 30 mg/kg, po administered at 6,[…],[…] and 72 hrs post-infection (reference value: 6 to 7 days); type: functional
[30] = biological target: T1, Chloroquine resistance transporter (Plasmodium falciparum); experiment: Inhibition of chloroquine-sensitive Plasmodium falciparum D10 CRT expressed in Xenopus laevis oocyte assessed as inhibition of [3H]chloroquine uptake at 100 uM measured from 1 to 2 hrs
[31] = test system: Salmonella typhimurium; experiment: Mutagenicity against Salmonella typhimurium TA100 assessed as revertants at 6 uM incubated for 90 mins followed by drug washout measured after 2 days relative to positive control; type: toxicity, organism-based; settings: salmonella enterica subsp. enterica serovar typhimurium, 1.5 h
[32] = test system: Plasmodium berghei; experiment: Antimalarial activity against Plasmodium berghei ANKA expressing GFP infected in mouse assessed as reduction in parasitemia at 30 mg/kg, po administered 24 hrs post-infection measured 48 hrs post-dosing by flow cytometric analysis; type: functional; design: scale not given: the % may be the effect or the level left

Clc1ccc(C(Nc2ccnc3cc(Cl)ccc23)c2ccc(CN3CCNCC3)cc2)cc1 (racemic)
Activity [1]: 6% | Time [2]: 22.67 ms | Vd/F [3]: 153 L/kg | Time [4]: 145.15 ms | Activity [5]: 4% | Time [6]: 94.5 ms | half-life [7]: 1740 min | IC50 [8]: 58 nM | MSD [9]: 28.8 days | MSD [10]: 15.8 days | Activity [11]: 27% | Drug uptake [12]: Not Active | MSD [13]: 29 days | CL/F [14]: 82 mL/min/kg | Time [15]: 14.18 ms | Time [16]: 177.33 ms | Time [17]: 151.17 ms | Time [18]: 294 ms | inhibition [19]: Active | IC50 [20]: 62 nM | blood plasma ratio [21]: 1.9 | Activity [22]: 99.5% | Time [23]: 168.83 ms | Activity [24]: 19% | Time [25]: 76.5 ms | IC50 [26]: 10.3 µM | IC50 [27]: 17 nM | Activity [28]: 4% | MSD [29]: 30 days | inhibition [30]: inactive | Activity [31]: 13% | Activity [32]: 99.7%
